Experimental data reported in US20250361268A1, “NOVEL ANTI-INFLAMMATORY PEPTIDE AND USE THEREOF” (NOVACELL TECHNOLOGY INC., priority 2022, published 2025).
Peptide text beside a SMILES is read from it.

Assays:
FPR1 [1] = molecular target: T1, FPR1 (Homo sapiens, UniProt P21462); test: Change in calcium activity by peptide, FPR1 activation effect; assay type: cell-based; conditions: calcium activity (Fura-2), graded per Table 3, read-out: EC50 for [Ca^2+] FPR1
T1 sequence (P21462 1-350): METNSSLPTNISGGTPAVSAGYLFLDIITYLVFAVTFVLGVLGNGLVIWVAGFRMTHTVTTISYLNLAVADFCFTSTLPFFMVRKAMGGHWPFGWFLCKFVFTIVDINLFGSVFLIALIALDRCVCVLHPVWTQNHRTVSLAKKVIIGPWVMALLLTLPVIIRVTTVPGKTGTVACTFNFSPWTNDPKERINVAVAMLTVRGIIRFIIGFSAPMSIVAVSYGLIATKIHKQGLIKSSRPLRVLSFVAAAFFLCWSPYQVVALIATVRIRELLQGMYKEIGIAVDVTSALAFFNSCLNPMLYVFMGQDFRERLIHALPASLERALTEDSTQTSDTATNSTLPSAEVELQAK
Summary of the method: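 Cells plated at 3×10^5 per well the day before were loaded with Fura-2 for 1 h at 37 °C, then kept 30 min in the dark at room temperature. Peptide-evoked calcium changes were recorded on a FlexStation 3.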

FPR2 = molecular target: T2, FPR2 (Homo sapiens, UniProt P25090); test: Change in calcium activity by peptide (Fura-2) in RBL cells overexpressing FPR2; assay type: cell-based; conditions: calcium activity (Fura-2), graded per Table 3, read-out: EC50 for [Ca^2+] FPR2
T2 construct: expressed in transfected cells; host or cells: RBL cells (RBL-FPR2)
T2 sequence (P25090 1-351): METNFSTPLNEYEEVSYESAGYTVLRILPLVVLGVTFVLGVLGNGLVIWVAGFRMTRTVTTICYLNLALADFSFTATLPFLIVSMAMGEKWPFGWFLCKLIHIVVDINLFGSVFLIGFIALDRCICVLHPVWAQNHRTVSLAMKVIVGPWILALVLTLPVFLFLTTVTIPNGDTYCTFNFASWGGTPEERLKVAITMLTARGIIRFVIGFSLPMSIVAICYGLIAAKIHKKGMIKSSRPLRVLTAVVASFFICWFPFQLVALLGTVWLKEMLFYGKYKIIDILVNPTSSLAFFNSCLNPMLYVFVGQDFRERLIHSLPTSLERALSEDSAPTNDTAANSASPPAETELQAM
Summary of the method: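 Rat basophilic leukemia cells overexpressing FPR2 loaded with Fura-2 (37 °C 1 h, then RT 30 min dark); peptides (0.5 mM stocks in water or 50% DMSO) diluted in HBSS + 20 mM HEPES and added on a plate reader, intracellular Ca2+ change recorded.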

FPR1 [2] = molecular target: T3, FPR1 (UniProt P21462 1-350, limits assumed); test: cell-based or functional assay
T3 sequence (looked up): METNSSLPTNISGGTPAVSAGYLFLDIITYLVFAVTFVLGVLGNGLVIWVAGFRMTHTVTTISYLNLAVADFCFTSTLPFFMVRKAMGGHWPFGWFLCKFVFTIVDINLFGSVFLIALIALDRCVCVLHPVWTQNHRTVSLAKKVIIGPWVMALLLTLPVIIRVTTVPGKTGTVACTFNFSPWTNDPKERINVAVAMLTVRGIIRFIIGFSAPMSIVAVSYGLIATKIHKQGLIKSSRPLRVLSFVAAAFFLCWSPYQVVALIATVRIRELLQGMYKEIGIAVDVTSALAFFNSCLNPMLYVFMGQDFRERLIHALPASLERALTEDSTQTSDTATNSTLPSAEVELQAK

CSCC[C@@H](NC(=O)[C@@H](NC(=O)[C@H](CCCNC(=N)N)NC(=O)[C@H](Cc1ccc(O)cc1)NC(=O)[C@H](CCCNC(=N)N)NC(=O)[C@H](Cc1c[nH]c2ccccc12)NC(=O)[C@@H](N)CCCNC(=N)N)C(C)C)C(N)=O [Peptide 29] (HELM PEPTIDE1{R.W.R.Y.R.V.[dM].[am]}$$$$V2.0)
EC50 (FPR1 [1]): > 10 µM | EC50 (FPR2): < 0.01 µM

CSCC[C@@H](NC(=O)[C@@H](NC(=O)[C@H](Cc1ccccc1)NC(=O)[C@H](Cc1ccc(O)cc1)NC(=O)[C@H](CCCNC(=N)N)NC(=O)[C@H](Cc1c[nH]c2ccccc12)NC(=O)[C@@H](N)CCCNC(=N)N)C(C)C)C(N)=O [Peptide 160] (HELM PEPTIDE1{R.W.R.Y.F.V.[dM].[am]}$$$$V2.0)
EC50 (FPR1 [1]): 1 to 10 µM | EC50 (FPR2): 0.011 to 0.1 µM

CSCC[C@H](NC(=O)[C@H](CCCCN)NC(C)=O)C(=O)N[C@@H](CCCCN)C(=O)N[C@@H](Cc1ccc(O)cc1)C(=O)N[C@@H](CCCCN)C(=O)N[C@H](C(=O)N[C@H](CCSC)C(N)=O)C(C)C [Peptide 10] (HELM PEPTIDE1{[ac].K.M.K.Y.K.V.[dM].[am]}$$$$V2.0)
EC50 (FPR1 [1]): > 10 µM | EC50 (FPR2): 0.011 to 0.1 µM

CSCC[C@@H](NC(=O)[C@H](Cc1ccc(O)cc1)NC(=O)[C@H](Cc1c[nH]c2ccccc12)NC(=O)[C@H](Cc1ccc(O)cc1)NC(=O)[C@H](CCCNC(=N)N)NC(=O)[C@H](Cc1c[nH]c2ccccc12)NC(=O)[C@H](CCCNC(=N)N)NC(C)=O)C(N)=O [Peptide 78] (HELM PEPTIDE1{[ac].R.W.R.Y.W.Y.[dM].[am]}$$$$V2.0)
EC50 (FPR1 [1]): > 10 µM | EC50 (FPR2): < 0.01 µM

CC[C@H](C)[C@H](N)C(=O)N[C@@H](CCCCN)C(=O)N[C@@H](Cc1ccccc1)C(=O)N[C@@H](Cc1c[nH]c2ccccc12)C(=O)N[C@@H](Cc1ccc(O)cc1)C(=O)N[C@H](CCSC)C(N)=O [Peptide 128] (HELM PEPTIDE1{I.K.F.W.Y.[dM].[am]}$$$$V2.0)
EC50 (FPR1 [1]): > 10 µM | EC50 (FPR2): 0.011 to 0.1 µM

CSCC[C@@H](NC(=O)[C@H](Cc1ccc(O)cc1)NC(=O)[C@H](Cc1ccc(O)cc1)NC(=O)[C@H](Cc1ccc(O)cc1)NC(=O)[C@H](CCCNC(=N)N)NC(=O)[C@H](Cc1c[nH]c2ccccc12)NC(C)=O)C(N)=O [Peptide 124] (HELM PEPTIDE1{[ac].W.R.Y.Y.Y.[dM].[am]}$$$$V2.0)
EC50 (FPR1 [1]): 1 to 10 µM | EC50 (FPR2): 0.011 to 0.1 µM

CSCC[C@@H](NC(=O)[C@@H]1CCCN1C(=O)[C@H](CCCCN)NC(=O)[C@H](Cc1ccc(O)cc1)NC(=O)[C@H](CCCNC(=N)N)NC(=O)[C@H](Cc1c[nH]c2ccccc12)NC(C)=O)C(N)=O [Peptide 76] (HELM PEPTIDE1{[ac].W.R.Y.K.P.[dM].[am]}$$$$V2.0)
EC50 (FPR1 [1]): 1 to 10 µM | EC50 (FPR2): < 0.01 µM

CSCC[C@H](NC(C)=O)C(=O)N[C@@H](CCCNC(=N)N)C(=O)N[C@@H](Cc1ccc(O)cc1)C(=O)N[C@@H](Cc1ccc(O)cc1)C(=O)N[C@@H](Cc1ccc(O)cc1)C(=O)N[C@H](CCSC)C(N)=O [Peptide 126] (HELM PEPTIDE1{[ac].M.R.Y.Y.Y.[dM].[am]}$$$$V2.0)
EC50 (FPR1 [1]): > 10 µM | EC50 (FPR2): 0.011 to 0.1 µM

CSCC[C@@H](NC(=O)[C@H](Cc1ccc(O)cc1)NC(=O)[C@H](CCCNC(=N)N)NC(=O)[C@H](Cc1ccc(O)cc1)NC(=O)[C@H](CCCNC(=N)N)NC(=O)[C@H](Cc1c[nH]c2ccccc12)NC(=O)[C@@H](N)CCCNC(=N)N)C(N)=O [Peptide 48] (HELM PEPTIDE1{R.W.R.Y.R.Y.[dM].[am]}$$$$V2.0)
EC50 (FPR1 [1]): > 10 µM | EC50 (FPR2): 0.011 to 0.1 µM

CSCC[C@H](NC(=O)[C@H](CCCNC(=N)N)NC(C)=O)C(=O)N[C@@H](CCCNC(=N)N)C(=O)N[C@@H](Cc1ccc(O)cc1)C(=O)N[C@@H](Cc1ccc(O)cc1)C(=O)N[C@H](C(=O)N[C@H](CCSC)C(N)=O)C(C)C [Peptide 98] (HELM PEPTIDE1{[ac].R.M.R.Y.Y.V.[dM].[am]}$$$$V2.0)
EC50 (FPR1 [1]): 1 to 10 µM | EC50 (FPR2): < 0.01 µM

CC[C@H](C)[C@H](NC(C)=O)C(=O)N[C@@H](CCCCN)C(=O)N[C@@H](Cc1ccc(O)cc1)C(=O)N[C@@H](CCCCN)C(=O)N[C@H](C(=O)N[C@H](CCSC)C(N)=O)C(C)C [Peptide 135] (HELM PEPTIDE1{[ac].I.K.Y.K.V.[dM].[am]}$$$$V2.0)
EC50 (FPR1 [1]): > 10 µM | EC50 (FPR2): < 0.01 µM

B1: peptide of SEQ ID NO 43 (peptide)
peptide: MRYKYM
HELM: PEPTIDE1{[CCCC(=O)[*:2]].M.R.Y.K.Y.[dM].[am]}$$$$V2.0
SMILES: CCCC(=O)N[C@@H](CCSC)C(=O)N[C@@H](CCCNC(=N)N)C(=O)N[C@@H](Cc1ccc(O)cc1)C(=O)N[C@@H](CCCCN)C(=O)N[C@@H](Cc1ccc(O)cc1)C(=O)N[C@H](CCSC)C(N)=O
EC50 for [Ca2+] (FPR1 [2]): > 10 µM

B2: peptide of SEQ ID NO 44 (peptide)
peptide: HMRYKYM
HELM: PEPTIDE1{H.M.R.Y.K.Y.[dM].[am]}$$$$V2.0; N-terminus assumed
SMILES: CSCC[C@H](NC(=O)[C@@H](N)Cc1c[nH]cn1)C(=O)N[C@@H](CCCNC(=N)N)C(=O)N[C@@H](Cc1ccc(O)cc1)C(=O)N[C@@H](CCCCN)C(=O)N[C@@H](Cc1ccc(O)cc1)C(=O)N[C@H](CCSC)C(N)=O
EC50 for [Ca2+] (FPR1 [2]): > 10 µM

B3: peptide of SEQ ID NO 48 (peptide)
peptide: RWRYRYM
HELM: PEPTIDE1{R.W.R.Y.R.Y.[dM].[am]}$$$$V2.0; N-terminus assumed
SMILES: CSCC[C@@H](NC(=O)[C@H](Cc1ccc(O)cc1)NC(=O)[C@H](CCCNC(=N)N)NC(=O)[C@H](Cc1ccc(O)cc1)NC(=O)[C@H](CCCNC(=N)N)NC(=O)[C@H](Cc1c[nH]c2ccccc12)NC(=O)[C@@H](N)CCCNC(=N)N)C(N)=O
EC50 for [Ca2+] (FPR1 [2]): > 10 µM

B4: peptide of SEQ ID NO 49 (peptide)
peptide: MRYRYM
HELM: PEPTIDE1{[ac].M.R.Y.R.Y.[dM].[am]}$$$$V2.0
SMILES: CSCC[C@H](NC(C)=O)C(=O)N[C@@H](CCCNC(=N)N)C(=O)N[C@@H](Cc1ccc(O)cc1)C(=O)N[C@@H](CCCNC(=N)N)C(=O)N[C@@H](Cc1ccc(O)cc1)C(=O)N[C@H](CCSC)C(N)=O
EC50 for [Ca2+] (FPR1 [2]): > 10 µM

B5: peptide of SEQ ID NO 66 (peptide)
peptide: KMKYKPM
HELM: PEPTIDE1{K.M.K.Y.K.P.[dM].[am]}$$$$V2.0; N-terminus assumed
SMILES: CSCC[C@H](NC(=O)[C@@H](N)CCCCN)C(=O)N[C@@H](CCCCN)C(=O)N[C@@H](Cc1ccc(O)cc1)C(=O)N[C@@H](CCCCN)C(=O)N1CCC[C@H]1C(=O)N[C@H](CCSC)C(N)=O
EC50 for [Ca2+] (FPR1 [2]): > 10 µM

B6: peptide of SEQ ID NO 69 (peptide)
peptide: KMKYKPM
HELM: PEPTIDE1{[CCCCCCCC(=O)[*:2]].K.M.K.Y.K.P.[dM].[am]}$$$$V2.0
SMILES: CCCCCCCC(=O)N[C@@H](CCCCN)C(=O)N[C@@H](CCSC)C(=O)N[C@@H](CCCCN)C(=O)N[C@@H](Cc1ccc(O)cc1)C(=O)N[C@@H](CCCCN)C(=O)N1CCC[C@H]1C(=O)N[C@H](CCSC)C(N)=O
EC50 for [Ca2+] (FPR1 [2]): > 10 µM

B7: peptide of SEQ ID NO 71 (peptide)
peptide: MKYKPM
HELM: PEPTIDE1{[ac].M.K.Y.K.P.[dM].[am]}$$$$V2.0
SMILES: CSCC[C@H](NC(C)=O)C(=O)N[C@@H](CCCCN)C(=O)N[C@@H](Cc1ccc(O)cc1)C(=O)N[C@@H](CCCCN)C(=O)N1CCC[C@H]1C(=O)N[C@H](CCSC)C(N)=O
EC50 for [Ca2+] (FPR1 [2]): > 10 µM

B8: peptide of SEQ ID NO 72 (peptide)
peptide: MKYKPM
HELM: PEPTIDE1{[CCCC(=O)[*:2]].M.K.Y.K.P.[dM].[am]}$$$$V2.0
SMILES: CCCC(=O)N[C@@H](CCSC)C(=O)N[C@@H](CCCCN)C(=O)N[C@@H](Cc1ccc(O)cc1)C(=O)N[C@@H](CCCCN)C(=O)N1CCC[C@H]1C(=O)N[C@H](CCSC)C(N)=O
EC50 for [Ca2+] (FPR1 [2]): > 10 µM

B9: peptide of SEQ ID NO 73 (peptide)
peptide: MKYKPM
HELM: PEPTIDE1{[CCCCCCCC(=O)[*:2]].M.K.Y.K.P.[dM].[am]}$$$$V2.0
SMILES: CCCCCCCC(=O)N[C@@H](CCSC)C(=O)N[C@@H](CCCCN)C(=O)N[C@@H](Cc1ccc(O)cc1)C(=O)N[C@@H](CCCCN)C(=O)N1CCC[C@H]1C(=O)N[C@H](CCSC)C(N)=O
EC50 for [Ca2+] (FPR1 [2]): > 10 µM

B10: peptide of SEQ ID NO 77 (peptide)
peptide: RWRYWYM
HELM: PEPTIDE1{R.W.R.Y.W.Y.[dM].[am]}$$$$V2.0; N-terminus assumed
SMILES: CSCC[C@@H](NC(=O)[C@H](Cc1ccc(O)cc1)NC(=O)[C@H](Cc1c[nH]c2ccccc12)NC(=O)[C@H](Cc1ccc(O)cc1)NC(=O)[C@H](CCCNC(=N)N)NC(=O)[C@H](Cc1c[nH]c2ccccc12)NC(=O)[C@@H](N)CCCNC(=N)N)C(N)=O
EC50 for [Ca2+] (FPR1 [2]): > 10 µM
